Reference: a melting point compilation (Tetko et al.; mined from patent text by program, amines drawn as free bases though some values may be those of a salt)

SMILES	melting point [°C]
Cc1c(O)ccc2cc(Br)ccc12	127 to 129
CC1CCN(C(=O)Oc2ccc(Oc3ccc(Cl)cc3)cc2)CC1	72 to 75
CN1C(c2ccc(Cl)cc2)=C(C#N)CC1C(F)(F)F (stereo unspecified)	158 to 160
CCCCCCCCCCCC(=O)c1c(-c2ccccc2)[nH]n(-c2ccccc2)c1=O	69
O=S(=O)(c1cc(C(F)(F)F)[nH]c1-c1ccc(Cl)cc1)C(F)(F)F	167 to 169
CS(=O)(=O)c1ccc(-c2cnn(-c3ccc(F)c(F)c3)c(=O)c2Cc2ccc(F)cc2)cc1	157 to 159
CC(C)N1CCN(S(=O)(=O)c2cccc(NC(=O)Nc3ccc(C(F)(F)F)cc3)c2)CC1	117 to 122
Nc1nc(N)c2ncn(C3C=CC(CO)C3)c2n1 (stereo unspecified)	152 to 155
Cc1cc(C)n(-c2nc(NC3Cc4ccccc4C3)cc(N3CCOCC3)n2)n1	66 to 70
COc1ccc2c3ccc(OC)cc3n(-c3ccccc3OC)c2c1	148
COc1ccc(C(=O)NCC(=O)N2c3ccccc3N(Cc3ccccc3)C(=O)[C@H]3CCC[C@H]32)cc1OC (relative stereo)	174 to 176
O=C1Nc2cc(Cl)ccc2C(=O)C1c1ccncc1 (stereo unspecified)	> 330
O=C1c2ccccc2C(=O)N1CCCOc1cccc2[nH]c3ccccc3c12	171 to 172
CC(C)C1Cc2cc(C=O)sc2C1 (stereo unspecified)	< 50
COc1cc(COc2nn(-c3ccccc3)cc2/C=C/c2csc(CO)n2)ccc1OCc1nc(-c2ccc(CC(=O)O)cc2)oc1C	204 to 205
C=CCc1c(OC)ccc(-c2cc(-c3ccc(Cl)cc3)n(-c3ccc(OC)cc3)n2)c1OC	44 to 46
Nc1ccccc1Sc1c(N)[nH]c(=O)[nH]c1=O	> 310
COc1cc2c(cc1C=O)C(C)(C)C(=O)N2C	192 to 194
CNC(=O)c1cc(-c2cccc3nc(Nc4cc(OC)c(OC)c(OC)c4)oc23)cs1	260 to 262
O=C(/C=C\c1ccccc1)Nc1ccccc1	101 to 102
N#Cc1cc(C=C2NC(=S)NC2=O)cc(O)c1O	210 to 213
CCn1c(=O)c2[nH]c(-c3ccc(S(=O)(=O)O)cc3)nc2n(CC)c1=O	> 360
Cc1ccc(S(=O)(=O)N(C)F)cc1	42 to 44
O=c1c(O)c(-c2ccccc2-c2ccc(CNc3nc(C(F)(F)F)nc4c3CCCC4)cc2)c1=O	193
CC(C)C(=O)N[C@H]1N=C(c2ccccc2)c2ccccc2N(C)C1=O	87 to 107
CN(C)c1ccc(NS(=O)(=O)c2cccc(-c3ccc(F)cc3)c2)cc1	158 to 160
Cc1nc(-c2ccc([N+](=O)[O-])cc2)c[nH]1	216 to 219

Continued, values first:

melting point [°C]	SMILES
94 to 96	CCCCCC(=O)c1cnc2c(OC)cccc2c1Nc1ccccc1C
185 to 187	CN(CCc1ccccc1)C(=O)Cn1cc(C=CC(=O)N2CCCC2)c2cc(OCc3ccccc3)ccc21
179	COC(=O)c1ccc2c(c1)c(=O)n(Cc1ccccc1)c(=O)n2C
120 to 121	CCOC(=O)c1cn(OC)c2ccccc2c1=O
288 to 289	Cn1c(-c2ccc(C(=O)O)cc2)cc2cc3c(cc21)C(C)(C)CCC3(C)C
95 to 97	COc1ccc(I)cc1CN
115	CCOCCn1c(N(Cc2ccccc2)C2CCN(C(=O)OCC)CC2)nc2cccnc21
201 to 204	COc1cc(CCCO)cc2c(O)c(C(=O)NCc3ccc(Cl)cc3)cnc12
210 to 213	CCOc1cc(C(=O)O)on1
101 to 102	CC(C)=CCOc1ccc(C(=O)C=Cc2c(Cl)cccc2Cl)c(O)c1
188 to 190	Cc1cc(C)c(CCCc2c(C)nc(N)nc2N)cc1C
143 to 149	O=C(O)CCc1ccc(-c2ccccc2)cc1
232 to 234	CCC(C)CNC1=NS(=O)(=O)c2sc(Cl)cc2N1 (stereo unspecified)
80 to 81	CC(=O)c1ccc2ccccc2c1OC(F)F
